Measurements as given in ChEMBL document CHEMBL1201862, “PubChem BioAssay data set” (2004).
Calls of active or inactive are those of the source.

Tests used:
[1] = system: Streptococcus; assay: GAS UMAA2166 growth inhibition – luminescence, BacTiterGlo, counter-screen for streptokinase expression inhibitor project, dose response (AID 1915); type: functional, organism-based;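 note: potency for reduction of bacterial viability or growth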
[2] = system: Streptococcus; assay: Luminescence Microorganism-Based Dose Response Follow up to Identify Compounds Cytotoxic to Streptococcus. [Related pubchem assays: 1677 (Project Summary), 1915, 1914, 1902 (Retest at Dose), 1900 (Counter Screen), 1662 (Primary HTS)]; type: functional, organism-based
[3] = system: Streptococcus sp. 'group A'; assay: Streptococcus pyogenes SK(-)GAS viability under kanamycin – luminescence, BacTiterGlo, confirmation, counter-screen for streptokinase expression inhibitor project, dose response (AID 1900); type: functional, organism-based
[4] = target: T1, Streptokinase A (Streptococcus pyogenes serotype M1, UniProt P10520); assay: viability-normalized secreted streptokinase activity reduction – plasminogen activation absorbance, OD405, dose response (AID 1914); type: functional, Streptococcus pyogenes M1 GAS;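 note: secreted streptokinase activity via plasminogen activation per viability signal from cell pellet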
T1 sequence (P10520 whole entry): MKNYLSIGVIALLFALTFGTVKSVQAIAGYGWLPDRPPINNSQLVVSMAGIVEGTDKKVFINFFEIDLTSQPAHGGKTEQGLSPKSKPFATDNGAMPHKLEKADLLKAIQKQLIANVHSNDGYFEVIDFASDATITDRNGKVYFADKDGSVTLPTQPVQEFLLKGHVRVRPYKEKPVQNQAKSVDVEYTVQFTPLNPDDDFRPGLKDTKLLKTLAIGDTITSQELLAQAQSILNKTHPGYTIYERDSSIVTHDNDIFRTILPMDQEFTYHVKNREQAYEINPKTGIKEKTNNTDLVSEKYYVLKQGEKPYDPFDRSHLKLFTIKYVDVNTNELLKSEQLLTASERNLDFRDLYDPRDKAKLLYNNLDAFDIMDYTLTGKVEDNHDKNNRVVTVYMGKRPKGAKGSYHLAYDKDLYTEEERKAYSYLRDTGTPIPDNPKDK

[5] = mRNA 3' processing disruption, beta-gal signal increase – luminescence, S. cerevisiae SKY197-pL101, dose response (AID 2525); type: functional, cell-based
[6] = target: Cytochrome P450 2C9 (Homo sapiens, UniProt P11712); conditions: Potency
[7] = target: T2, Rac GTPase-activating protein 1 (Homo sapiens, UniProt Q9H0H5); assay: blockers of MgcRacGAP-driven Rac1 GTP hydrolysis – biochemical, ADP Hunter fluorescence, primary and confirmatory, confirmation (AID 624330); type: functional
T2 sequence (Q9H0H5 whole entry): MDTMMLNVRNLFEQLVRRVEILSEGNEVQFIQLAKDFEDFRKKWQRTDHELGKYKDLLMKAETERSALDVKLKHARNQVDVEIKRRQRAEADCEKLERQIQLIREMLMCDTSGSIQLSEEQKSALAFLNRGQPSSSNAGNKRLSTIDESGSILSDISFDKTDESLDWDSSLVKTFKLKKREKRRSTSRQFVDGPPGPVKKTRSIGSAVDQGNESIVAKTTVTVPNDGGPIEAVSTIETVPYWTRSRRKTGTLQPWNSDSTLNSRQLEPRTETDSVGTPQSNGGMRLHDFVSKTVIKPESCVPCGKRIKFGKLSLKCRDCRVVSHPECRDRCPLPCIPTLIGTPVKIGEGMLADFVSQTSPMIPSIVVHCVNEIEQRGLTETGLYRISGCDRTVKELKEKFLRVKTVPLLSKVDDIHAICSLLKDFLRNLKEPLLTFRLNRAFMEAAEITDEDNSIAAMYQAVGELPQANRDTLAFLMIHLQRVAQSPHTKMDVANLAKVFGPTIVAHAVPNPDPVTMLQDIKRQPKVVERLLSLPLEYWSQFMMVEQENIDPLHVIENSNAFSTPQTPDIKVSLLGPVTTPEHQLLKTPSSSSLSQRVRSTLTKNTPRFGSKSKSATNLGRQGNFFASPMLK

[8] = target: Insulin-degrading enzyme (Homo sapiens, UniProt P14735); assay: Dose Response: Fluorescence polarization-based cell-based high throughput dose response assay for inhibitors of insulin-degrading enzyme (IDE). [Related pubchem assays: 434962 (Primary screen (IDE inhibitors in singlicate)), 449730 (Counterscreen (Cytotoxicity in triplicate)), 435028 (Confirmation (IDE inhibitors in triplicate)), 434984 (Summary …; type: functional
[9] = viability loss in HeLa cells – cytotoxicity control for MgcRacGAP inhibitor project, dose response (AID 624300); type: functional
[10] = Counterscreen for IDE inhibitors: Luminescence-based cell-based high throughput dose response assay to identify compounds that are cytotoxic to HEK cells. [Related pubchem assays: 434962 (Primary screen (IDE inhibitors in singlicate)), 449730 (Counterscreen (Cytotoxicity in triplicate)), 435028 (Confirmation (IDE inhibitors in triplicate)) …; type: functional; conditions: HEK293

Sequence of Cytochrome P450 2C9 (P11712 whole entry): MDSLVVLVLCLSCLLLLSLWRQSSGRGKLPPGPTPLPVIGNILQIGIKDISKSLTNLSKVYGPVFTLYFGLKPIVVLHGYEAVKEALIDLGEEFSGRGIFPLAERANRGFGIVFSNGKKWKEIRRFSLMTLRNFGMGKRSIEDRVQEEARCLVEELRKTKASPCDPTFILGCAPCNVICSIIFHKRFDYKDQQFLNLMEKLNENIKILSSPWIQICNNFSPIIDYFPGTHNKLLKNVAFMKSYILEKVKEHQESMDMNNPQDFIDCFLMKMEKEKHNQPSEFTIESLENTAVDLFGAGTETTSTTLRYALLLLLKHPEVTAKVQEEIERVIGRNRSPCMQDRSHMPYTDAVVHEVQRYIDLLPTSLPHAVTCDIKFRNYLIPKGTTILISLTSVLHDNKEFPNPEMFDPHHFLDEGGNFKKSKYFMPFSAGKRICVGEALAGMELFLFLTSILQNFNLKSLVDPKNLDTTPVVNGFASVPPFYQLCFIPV
Sequence of Insulin-degrading enzyme (P14735 whole entry): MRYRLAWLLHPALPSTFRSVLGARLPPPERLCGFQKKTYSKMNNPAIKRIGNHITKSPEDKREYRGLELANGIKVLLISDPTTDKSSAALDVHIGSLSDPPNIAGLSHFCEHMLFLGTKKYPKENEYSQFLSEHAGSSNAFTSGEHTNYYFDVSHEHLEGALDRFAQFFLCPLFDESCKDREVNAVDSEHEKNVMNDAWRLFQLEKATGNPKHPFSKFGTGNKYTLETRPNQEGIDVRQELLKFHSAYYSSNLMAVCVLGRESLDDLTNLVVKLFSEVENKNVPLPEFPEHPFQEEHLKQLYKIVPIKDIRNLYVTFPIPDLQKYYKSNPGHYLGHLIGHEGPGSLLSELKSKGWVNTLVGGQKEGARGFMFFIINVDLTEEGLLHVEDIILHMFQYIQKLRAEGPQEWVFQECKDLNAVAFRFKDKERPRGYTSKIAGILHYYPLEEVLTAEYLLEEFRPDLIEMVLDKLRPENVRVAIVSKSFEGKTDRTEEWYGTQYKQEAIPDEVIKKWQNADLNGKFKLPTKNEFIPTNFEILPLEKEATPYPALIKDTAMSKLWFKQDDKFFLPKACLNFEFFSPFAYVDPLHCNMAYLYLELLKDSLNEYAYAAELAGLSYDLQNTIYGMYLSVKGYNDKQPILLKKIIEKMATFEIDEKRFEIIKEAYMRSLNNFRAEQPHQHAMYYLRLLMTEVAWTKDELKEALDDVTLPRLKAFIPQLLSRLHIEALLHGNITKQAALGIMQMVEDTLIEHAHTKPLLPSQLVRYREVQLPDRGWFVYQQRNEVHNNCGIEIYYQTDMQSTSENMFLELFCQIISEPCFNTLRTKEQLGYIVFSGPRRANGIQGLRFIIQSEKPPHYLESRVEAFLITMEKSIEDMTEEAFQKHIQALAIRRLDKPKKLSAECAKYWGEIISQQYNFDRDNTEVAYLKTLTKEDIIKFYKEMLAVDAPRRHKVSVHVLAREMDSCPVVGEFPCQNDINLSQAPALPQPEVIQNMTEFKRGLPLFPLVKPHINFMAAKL

Question: What does the source list for `Cc1ccc(C(=O)n2c3ccccc3c3ccccc32)cc1`?
Answer: EC50 [1]: > 150 µM (not active); EC50 [2]: > 500 µM (not active); EC50 [3]: 21.6 µM (active); EC50 [4]: 6.45 µM (active)

Question: With `Cc1ccc2[nH]c(/C(C#N)=C/c3ccc([N+](=O)[O-])o3)nc2c1` as the compound, how does the EC50 [5] read?
Answer: 4.03 µM (active)

Question: For `CCCCCC[C@H]1C(=O)O[C@@H](C)[C@H](NC(=O)c2cccc(NC=O)c2O)C(=O)O[C@@H](C)[C@@H]1OC(=O)CC(C)C`, which AC50 [6] is on record?
Answer: 31.6 µM (inconclusive)

Question: Which IC50 [7] does the source give for `Cc1cc(/C=C2\SC(=S)NC2=O)cc(C)c1O` here?
Answer: 25.8 µM (active)

Question: And the IC50 [8]?
Answer: > 56 µM (not active)

Question: And the CC50 [9]?
Answer: 100 µM (active)

Question: And the IC50 [10]?
Answer: > 55.7 µM (not active)
